Test results as given in US20230413810A1, “SANITISING FORMULATION” (Lumendo AG, priority 2020, published 2023).

Tests used:
Assay type in all cases: cell-based
[1] = tested on: Staphylococcus aureus (ATCC 6538); assay: Direct contact test on glass plates, Log10 reduction of S. aureus (CFU/mL)
[2] = tested on: P. aeruginosa; assay: Direct contact test on glass plates, Log10 reduction of P. aeruginosa
[3] = tested on: Staphylococcus aureus (ATCC 6538); assay: Direct contact test on glass plates, Log10 reduction of S. aureus (CFU/mL); remark: listed apart in the source
Description: The anti-microbial-retaining hydrogel formulation was prepared by the addition of Tetronic® 1107 tetramethacrylate (12.64% w/w), prepared according to Example 6, to glycerol (29.48% w/w). Then triethanolamine (0.84% w/w) was added in water (7.58% w/w), diphenyliodonium hexafluorophosphate (0.067% w/w) and 4-(diphenylphosphino)benzoic acid (0.166% w/w) were added in ethanol (8.16% w/w) and a specified amount of anti-microbial agent was added in PBS buffer ×1 (40.01% w/w). The mixture was placed into a thermoshaker and heated and shaken (50° C., 1200 rpm) for 20 minutes. Next, ethyl (2,4,6-trimethylbenzoyl) phenylphosphinate (0.31% w/w) and eosin Y (0.00125% w/w) were added to the mixture in ethanol (4.01% w/w) and the solution was mixed at room temperature for 20 seconds.
A 15 mL falcon tube containing 5 mL of BHI medium was inoculated with Staphylococcus aureus (ATCC 6538) and incubated overnight at 37° C. on a shaker (140 rpm). On the next day, a 15 mL falcon tube containing 5 mL BHI medium was inoculated with 100 μL of the overnight culture and incubated at 37° C. for 3.5 hours at 140 rpm.
Glass plates (18 mm×18 mm) were added with anti-microbial-retaining hydrogel formulation (50 μL) and covered with another glass plate (18 mm×18 mm) in the well of a 6-well plate. Samples were polymerized by the light from the laminar flow hood for 30 minutes. […]
S. aureus cultures were diluted to an OD600 (optical density at λ=600 nm) of 0.2 and 50 μL added to the glass plates (18 mm×18 mm) covered with the anti-microbial retaining hydrogel formulation of the present invention. Samples were covered with a glass plate (18 mm×18 mm) and incubated at 37° C. for 60 minutes. Bacteria were recovered by addition of 1 mL of BHI medium to each well and manually shaking the plate for 30 seconds. From each solution a four times ten-fold dilution series was prepared, resulting in 5 concentrations (each time adding 20 μL of the previous solution to 180 μL of PBS). A BHI agar plate was divided into 5 sectors and from each dilution, three drops of 10 μL were added to one sector. The plates were incubated overnight at 37° C. From the dilution containing 3-30 colonies, the CFU/mL (colony forming units per mL) were calculated and recorded.
Samples were prepared as triplicates. As negative controls, glass plates with no hydrogel and with hydrogel but no anti-microbial agent were prepared. As a control group, glass plates were added with stock solutions of the appropriate disinfectant in PBS (50 μL) at the same concentration as in the hydrogel.
For the washing of samples, the polymerized hydrogel sample was washed with 1 mL PBS solution, after which the PBS solution was removed. The sample was let air dry for 15 minutes before bacterial was then applied as described above.

[4] = unmodified anti-microbial agents 0.1% w/w in hydrogel (Sterilium with no hydrogel), 0 washes with 1 mL water
[5] = unmodified anti-microbial agents 0.1% w/w in hydrogel (Sterilium with no hydrogel), 5 washes with 1 mL water
[6] = unmodified anti-microbial agents 1.0% w/w in hydrogel (Sterilium with no hydrogel), 0 washes with 1 mL water
[7] = unmodified anti-microbial agents 1.0% w/w in hydrogel (Sterilium with no hydrogel), 5 washes with 1 mL water
[8] = modified anti-microbial agents 1% w/w in hydrogel formulation according to Example 22
[9] = DDAC 0.1% w/w in polymerized hydrogel vs other sanitizing agents on glass surfaces, 0 washes
[10] = DDAC 0.1% w/w in polymerized hydrogel vs other sanitizing agents on glass surfaces, 5 washes with 1 mL water

Compound: Benzalkonium chloride
- Log10 reduction of S. aureus [1, 4]: 2 Log10
- Log10 reduction of S. aureus [1, 5]: >4 Log10
- Log10 reduction of P. aeruginosa [2, 6]: >1 Log10
- Log10 reduction of P. aeruginosa [2, 7]: >4 Log10

Compound: C=C(C)C(=O)OCCOCC[n+]1ccc(CCCCCCCCCCCCCCCCC)cc1.[Cl-] [2-(4-heptadecylpyridin-1-uim)ethoxyethyl methacrylate chloride]
- Log10 reduction of P. aeruginosa [2, 8]: <1 Log10
- Log10 reduction of S. aureus [3, 8]: >1 Log10

Compound: CCO [70% Ethanol, Ethanol]
- Log10 reduction of S. aureus [1, 9]: >4 Log10
- Log10 reduction of S. aureus [1, 10]: <1 Log10

Compound: 12-(N,N,N-Benzylbutylmethylammonium)dodecyl methacrylate bromide
- Log10 reduction of P. aeruginosa [2, 8]: 1 Log10
- Log10 reduction of S. aureus [3, 8]: >4 Log10

Compound: CC(C)(C)CC(C)(C)c1ccc(OCCOCC[N+](C)(C)Cc2ccccc2)cc1 [Benzethonium chloride, benzethonium chloride]
- Log10 reduction of S. aureus ([1]; 0.1% w/w in hydrogel (Example 28), 0 washes with 1 mL water): 2 Log10
- Log10 reduction of S. aureus ([1]; 0.1% w/w in hydrogel (Example 28), 5 washes with 1 mL water): 3 Log10
- Log10 reduction of S. aureus ([1]; 0.1% w/w in hydrogel (Example 28), 2 hours soaking in water): 3 Log10
- Log10 reduction of S. aureus [1, 4]: 2 Log10
- Log10 reduction of S. aureus [1, 5]: 3 Log10
- Log10 reduction of S. aureus ([3]; 0.1% w/w in hydrogel (Example 28), 20 washes with 1 mL water): 2 Log10

Compound: 2-(N,N,N-Cetylmethylbenzylammonium)ethyl methacrylate bromide
- Log10 reduction of P. aeruginosa [2, 8]: <1 Log10
- Log10 reduction of S. aureus [3, 8]: >2 Log10

Compound: 2-(N,N,N-Dodecyldimethylammonium)ethyl methacrylate bromide
- Log10 reduction of P. aeruginosa [2, 8]: 1 Log10
- Log10 reduction of S. aureus [3, 8]: 3 Log10

Compound: CC(C)O [60% Isopropanol, Isopropanol]
- Log10 reduction of S. aureus [1, 9]: >4 Log10
- Log10 reduction of S. aureus [1, 10]: <1 Log10

Compound: 9-(N,N,N-Benzylbutylmethylammonium)nonyl methacrylate bromide
- Log10 reduction of P. aeruginosa [2, 8]: 1 Log10
- Log10 reduction of S. aureus [3, 8]: <1 Log10

Compound: C=C(C)C(=O)OCCOCC[n+]1ccc(CCCCCCCCCCCCC)cc1.[Cl-] [2-(4-Tridecylpyridin-1-uim)ethoxyethyl methacrylate chloride]
- Log10 reduction of P. aeruginosa [2, 8]: 1 Log10
- Log10 reduction of S. aureus [3, 8]: >4 Log10

Compound: 12-(N,N,N-Butyldimethylammonium)dodecyl methacrylate bromide
- Log10 reduction of P. aeruginosa [2, 8]: 1 Log10
- Log10 reduction of S. aureus [3, 8]: >1 Log10

Compound: 2-(N,N,N-dodecylmethylbenzylammonium)ethyl methacrylate bromide
- Log10 reduction of P. aeruginosa [2, 8]: 3 Log10
- Log10 reduction of S. aureus [3, 8]: >4 Log10

Compound: N=C(NCCCCCCNC(=N)NC(=N)Nc1ccc(Cl)cc1)NC(=N)Nc1ccc(Cl)cc1 [Chlorohexidine]
- Log10 reduction of S. aureus [1, 4]: >4 Log10
- Log10 reduction of S. aureus [1, 5]: >4 Log10
- Log10 reduction of P. aeruginosa [2, 6]: >2 Log10
- Log10 reduction of P. aeruginosa [2, 7]: >4 Log10

Compound: CC(C)(C)CC(C)(C)c1ccc(OCCOCC[N+](C)(C)Cc2ccccc2)cc1 [Anti-microbial agent on glass surface, benzethonium chloride]
- Log10 reduction of S. aureus ([1]; benzethonium chloride 0.1% w/w, on glass with no hydrogel or in polymerized hydrogel, 0 washes with 1 mL water): >4 Log10
- Log10 reduction of S. aureus ([1]; benzethonium chloride 0.1% w/w, on glass with no hydrogel or in polymerized hydrogel, 5 washes with 1 mL water): <1 Log10
- Log10 reduction of S. aureus ([1]; benzethonium chloride 0.1% w/w, on glass with no hydrogel or in polymerized hydrogel, 10 washes with 1 mL water): <1 Log10
- Log10 reduction of S. aureus ([3]; benzethonium chloride 0.1% w/w, on glass with no hydrogel or in polymerized hydrogel, 20 washes with 1 mL water): <1 Log10

Compound: 16-(N,N,N-Benzylbutylmethylammonium)cetyl methacrylate bromide
- Log10 reduction of P. aeruginosa [2, 8]: <1 Log10
- Log10 reduction of S. aureus [3, 8]: >4 Log10

Compound: C=C(C)C(=O)OCCOCC[N+](C)(C)CCCCCCCCCCCCCCCC.[Cl-] [2-(N,N,N-Cetyldimethylammonium)ethoxyethyl methacrylate chloride]
- Log10 reduction of P. aeruginosa [2, 8]: >1 Log10
- Log10 reduction of S. aureus [3, 8]: >1 Log10

Compound: C=C(C)C(=O)OCC[N+](C)(C)CCOCCOc1ccc(C(C)(C)CC(C)(C)C)cc1.[Cl-] [2-(methacryloyloxy)-N,N-dimethyl-N-(2-(2-(4-(2,4,4-trimethylpentan-2-yl)phenoxy)ethoxy)ethyl)ethan-1-aminium chloride]
- Log10 reduction of S. aureus ([1]; 1% w/w in hydrogel, 0 washes with 1 mL water): >4 Log10
- Log10 reduction of S. aureus ([1]; 1% w/w in hydrogel, 5 washes with 1 mL water): >3 Log10
- Log10 reduction of S. aureus ([1]; 1% w/w in hydrogel, 20 washes with 1 mL water): 4 Log10
- Log10 reduction of S. aureus ([1]; 1% w/w in hydrogel, 2 hours soaking in water): >3 Log10
- Log10 reduction of P. aeruginosa [2, 8]: 1 Log10
- Log10 reduction of S. aureus [3, 8]: >4 Log10

Compound: CCCCCCCCCC[N+](C)(C)CCCCCCCCCC.[Cl-] [Didecyldimethylammonium chloride, didecyldimethylammonium chloride]
- Log10 reduction of S. aureus [1, 4]: >3 Log10
- Log10 reduction of S. aureus [1, 5]: >4 Log10
- Log10 reduction of P. aeruginosa [2, 6]: 2 Log10
- Log10 reduction of P. aeruginosa [2, 7]: >4 Log10
